Tests used:
[1] = system: 18 month old chronic bed sore on the middle of their back; assay: Example 2: old chronic back wound (bed sore), treatment of a human patient; type: in vivo; conditions: dressings in conjunction with two serial courses of antibiotics (per orum Cipro 500 mg B.I.D., then 500 mg intravenous Keflex every eight hours)
Protocol: The chemical debriding complex applied to each of the wounds treated in examples 2 through 4 was an aerosolized liquid composition comprising:
(§1) The formulation of the present invention used in the following examples was prepared in the form of a gel as follows:
(§2) (4) 1 ml of mixture (a), 1 ml of mixture (b) and 1 ml of mixture (c) were combined using a three step homogenization process to form the gel formulation of the present invention used in the following examples, namely
(§3) The dose of formulation used in treating the wounds in the following examples was based on the wound volume. The wound volume was measured in cubic centimeters using well known methods.
(§4) The wound was subsequently treated using the gel formulation prepared as described above. Specifically, the given formulation was administered to the patient's wound as part of the following treatment procedure. Particularly, (i) the wound was prepared for administration of the given formulation by liberal application of a chemical debriding complex described above; (ii) after allowing the chemical debriding complex to bubble off, about three (3) minutes, a medicated pad comprising a sterile pad containing about three (3) ml of the gel formulation for each cubic centimeter of wound volume was placed over the wound and secured to the patient; (iii) the medicated pad was removed about twenty-four (24) hours later; (iv) steps (i) through (iii) were repeated. After seven (7) days of treatment, the wound was completely closed.
A human patient in very poor health suffering from CHF, diabetes, peripheral vascular disease, 10% body surface non-candidyal yeast infection, nutritional deficit, and “steroid” skin secondary to prednisone administration for auto-immune arthritis and from an 18 month old chronic bed sore on the middle of their back. Conventional treatments, including granulex, zinc oxide, duoderm and sorbasan dressings in conjunction with two serial courses of oral antibiotics, per orum Cipro 500 mg B.I.D. followed by 500 mg intravenous Keflex every eight hours, were unsuccessful at stimulating the healing of the wound. […]

[2] = system: 16 month old chronic interstitial, encapsulated, alpha-hemolytic, streptococcal channelling ulceration located on their right ankle; assay: Example 1: old chronic ankle wound, treatment of a human patient; type: in vivo; conditions: for outcome of conventional per orum treatments / outcome of conventional intravenous treatments: two week cycle each, not given in the same period
Protocol: The concepts of the invention will now be illustrated by the following Examples, which are intended to be purely exemplary and not limiting. The chemical debriding complex applied to the wound treated in example 1 was an aerosolized liquid composition comprising:
as §1, §2, §3
A human patient in normal health, suffered from a 16 month old chronic interstitial, encapsulated, alpha-hemolytic, streptococcal channelling ulceration located on their right ankle and tunnelled to the periosteum of the bone in their right ankle. […] Conventional intravenous treatments, including a two week cycle of penicillin and a two week cycle of amoxicillin, were unsuccessful. Note that the penicillin and the amoxicillin were not administered during the same two week period. Conventional per orum treatments, including a two week cycle of Keflex® and a two week cycle of Cipro®, were unsuccessful. Note that the Keflex and Cipro were not administered during the same two week period, nor were they administered during the same two week period as either of the penicillin or the amoxicillin.
as §4

[3] = system: six (6) month old chronic pressure-friction wound on both haunches; assay: Example 3: canine pressure wound; type: in vivo, Borzoi; conditions: duoderm post shaving; before treatment with the formulation

O=C(O)c1cn(C2CC2)c2cc(N3CCNCC3)c(F)cc2c1=O [Cipro]
outcome of conventional treatments at stimulating the healing of the wound [1]: unsuccessful | outcome of conventional per orum treatments [2]: unsuccessful

CC1=C(C(=O)O)N2C(=O)[C@@H](NC(=O)[C@H](N)c3ccccc3)[C@H]2SC1 [Keflex]
outcome of conventional treatments at stimulating the healing of the wound [1]: unsuccessful | outcome of conventional per orum treatments [2]: unsuccessful

CC1(C)S[C@@H]2[C@H](NC(=O)[C@H](N)c3ccc(O)cc3)C(=O)N2[C@H]1C(=O)O [amoxicillin]
outcome of conventional intravenous treatments [2]: unsuccessful

[O]=[Zn] [zinc oxide]
outcome of conventional treatments at stimulating the healing of the wound [1]: unsuccessful | outcome of conventional topical treatments ([2]; topical, before treatment with the gel formulation): repeatedly unsuccessful | outcome of conventional treatments [3]: repeatedly unsuccessful

penicillin
outcome of conventional intravenous treatments [2]: unsuccessful

— US20010006646A1, “METHOD AND SYSTEM FOR TREATMENT OF WOUNDS” (priority 1996, published 2001)
